These results are taken from patent publication US11612651B2, “Steroid acid-based immunogen enhancers” (priority 2021, dated 2023).

No end group written: not given here. *: point of attachment. Cholyl = C[C@H](CCC(=O)*)[C@H]1CC[C@H]2[C@@H]3[C@H](O)C[C@@H]4C[C@H](O)CC[C@]4(C)[C@H]3C[C@H](O)[C@]12C

The subject of one test is GII.3 human norovirus. Conditions: host intestinal cells; free bile acids; cited from earlier work.
In test [1] the test system is B3Z cells. Nature of the test: Antigen-presentation assay using the B3Z reporter system, BMDCs as antigen presenting cells. In kind it is cell-based, mouse. Conditions: for antigen-presentation activity of cholic acid-NLS peptide conjugate (B3Z response OD570): BMDCs as antigen presenting cells, mixed with OVA at best conjugate:antigen ratio, FIGS. 3-5; for antigen cross-presentation (B3Z response) compared with OVA alone: BMDCs, molar ratio (bile acid/peptide/conjugate):antigen 4:1, mixed with OVA, FIG. 2. The source says:
For this experiment, BMDCs were used as the antigen presenting cells (n=6) and the molar ratio (bile acid/peptide/conjugate): antigen was 4:1. Controls tested included no antigen (“PBS”), antigen alone (“OVA alone”), unconjugated NLS peptide (“SV40NLS”), unconjugated cholic acid mixed with OVA (“CA”), and the positive control peptide SIINFEKL (SEQ ID NO: 9) mixed with OVA (“SIINFEKL”). The dashed line represents the signal obtained with OVA alone. Bile acids: cholic acid (CA); glycodeoxycholic acid (GDCA); glycochenodeoxycholic acid (GCDCA); ursodeoxycholic acid (UDCA); and lithocholic acid (LCA).
The dashed line represents the signal obtained with OVA alone. The readout was taken after 24 h of incubation and error bars represent SD (n=6). For this experiment, BMDCs were used as the antigen presenting cells.
The dashed line represents the signal obtained with OVA alone. Readout was taken after 24 h of incubation from a single experiment. The molar ratio of CA-peptide conjugate: OVA was 22:1. For this experiment, BMDCs were used as the antigen presenting cells.
For this experiment, BMDCs were used as the antigen presenting cells. The dashed line represents the signal obtained with OVA alone. Readout was taken after 24 h of incubation from a single experiment. The molar ratio of CA-peptide conjugate: OVA was as follows: CA-GWG-SV40NLS (12:1); CA-hnRNP M NLS (12:1); CA-NLS2-RPS17 NLS (22:1); CA-HuR NLS (22:1); CA-cMyc NLS (2:1); CA-NLS3-RPS17 NLS (22:1); CA-NLS2-RG-RPS17 NLS (2:1); CA-PQBP1 NLS (8:1); CA-hnRNPA1 M9 NLS (22:1); and CA-SV40 NLS (2:1).
(§1) Various bile acid-NLS conjugates were screened using the B3Z reporter system. The B3Z cell line is a T-cell hybridoma specific for the H2-K^b-SIINFEKL complex. Once activated via its TCR, the LacZ reporter gene (under the NFAT promoter control) is expressed. Briefly, 1.5×10^5 BMDCs or 2.5×10^5 MSCs were co-cultured with 5×10^4 B3Z cells treated with the mixing conditions of ovalbumin (OVA) and bile acid-NLS conjugates for overnight at 37° C. with 5% CO2. The following day, all cells were washed twice with PBS (pH 7.4), and the cell pellets were lysed by adding 100 μL of a lysis buffer containing 0.15 mM chlorophenol red-beta-D-galactopyranoside (CPRG) substrate (Calbiochem, La Jolla, Calif.), 0.125% NP40 (EMD Sciences, La Jolla, Calif.), 9 mM MgCl2 (Aldrich, USA) and 100 mM 2-mercaptoethanol in PBS. After a 5- or 24-h incubation at 37° C., absorbance was taken at 570 nm with 636 nm as the reference wavelength. For these experiments, OVA was re-suspended in PBS (pH 7.3) at 5-10 mg/mL. The different bile acid-NLS conjugates were re-suspended in H2O at 10 mg/mL. Bile acid-NLS conjugate: antigen mixtures were prepared at different molar ratios according to Table 2.
Variants of CA-SV40NLS were synthesized in order to explore structure-activity relationships relating to the antigen cross-presentation enhancing activity observed for this conjugate. More particularly, conjugates having different bile acids conjugated to the SV40NLS peptide (SEQ ID NO: 1) were synthesized and their effect on antigen presentation was evaluated by using the B3Z reporter system with the OVA antigen as described in Example 1. […] In FIG. 2, no increase in antigen cross-presentation over the antigen alone (“OVA”) was observed when OVA was mixed with either unconjugated cholic acid (“CA”) or SV40NLS peptide (“SV40NLS”), although lower sensitivity of the B3Z reporter system as compared to the OT-I CD8 T cell-based assay used in FIG. 1 may have been a factor.
(§2) Further variants of CA-SV40NLS were synthesized in which the SV40NLS peptide was replaced with peptides comprising other NLS's (Table 3) and the antigen presentation activities of the CA-NLS peptide conjugates were evaluated using the B3Z reporter system as described in Example 1. The following conjugate:antigen molar ratios were tested for each conjugate: 2:1, 4:1, 8:1, 12:1 and 22:1. […]

Test [2] has as its system B3Z cells. Briefly: Antigen-presentation assay using the B3Z reporter system, cross-presenting MSC line as antigen presenting cells. In kind it is cell-based. Conditions: compared to OVA alone or OVA mixed with CA-SV40NLS, FIG. 6. The procedure: For this experiment, a cross-presentation mesenchymal stromal cell (MSC) line was used as the antigen presenting cells. The dashed line represents the signal obtained with OVA alone. Readout was taken after 24 h of incubation. The molar ratio of CA-peptide conjugate: OVA was as follows: CA-GWG-SV40NLS (2:1); CA-hnRNP M NLS (8:1); CA-hnRNP D NLS (12:1); CA-NLS2-RG-RPS17 (4:1); CA-cMyc NLS (12:1); CA-HuR NLS (12:1); CA-Tus NLS (2:1); CA-NLS2-RPS17 NLS (4:1); CA-PQBP1 NLS (12:1); CA-hnRNPA1 M9 NLS (2:1); and CA-SV40 NLS (2:1).
as §1, §2

Test [3] concerns cross-presenting mesenchymal stromal cell (MSC) line. Nature of the test: Antigen internalization: MSC line pulsed with OVA labelled with Alexa Fluor 647, flow cytometry. In kind it is cell-based. Conditions: various conjugate:OVA molar ratios, FIGS. 7A-7D. As for the experimental part:
FIGS. 7A to 7D show the effect of different NLS peptides on the antigen internalization activity of cholic acid-NLS peptide conjugates. For this experiment, a cross-presenting mesenchymal stromal cell (MSC) line was used as the antigen presenting cells, which were pulsed with OVA labelled with Alexa Fluor 647 (i.e., OVA^647)™. OVA^647 fluorescence was measured by flow cytometry. Different ratios of CA (NLS1 RPS17 [FIG. 7A]; NLS3 RPS17 [FIG. 7B]; PQBP-1 [FIG. 7C]; and hnRNPA1 M9 NLS [FIG. 7D]) to antigen (CA:OVA=22:1, 12:1, 8:1, 4:1, and 2:1) were tested (hnRNPA1 M9 NLS at 2:1).
(§3) To further dissect the effect of bile acid peptide conjugates on antigen presentation, antigen internalization and processing were evaluated. MSC cell lines were pulsed with OVA-labelled with AF647 in the presence of various molar ratios of different bile acid peptide conjugates, NLS1-RPS17 [FIG. 7A]; NLS3 RPS17 [FIG. 7B]; PQBP-1 [FIG. 7C]; and hnRNPA1 M9 NLS [FIG. 7D]) and fluorescence was assessed by flow cytometry. […] OVA processing was assessed by pulsing MSC cell lines with DQ™-Ovalbumin (OVA-DQ) in the presence of the same bile acid peptide conjugates as in FIGS. 7A to 7D.
(Flow cytometry measures light scatter and fluorescence of single cells or particles in a stream.)

Test [4] has the same test system. Briefly: Antigen processing: MSC line pulsed with DQ Ovalbumin (OVA-DQ), flow cytometry. The format is cell-based. The conditions noted are these: various conjugate:OVA molar ratios, FIGS. 8A-8D. The procedure:
FIGS. 8A to 8D show the effect of different NLS peptides on the antigen processing activity of cholic acid-NLS peptide conjugates. For this experiment, a cross-presenting mesenchymal stromal cell (MSC) line was used as the antigen presenting cells, which were pulsed with DQ™ Ovalbumin (i.e., OVA^DQ). OVA^DQ fluorescence was measured by flow cytometry. Different ratios of CA (NLS1 RSP17 [FIG. 8A]; NLS3 RPS17 [FIG. 8B]; PQBP-1 [FIG. 8C]; and hnRNPA1 M9 NLS [FIG. 8D]) to antigen (CA:OVA=22:1, 12:1, 8:1, 4:1, and 2:1) were tested (hnRNPA1 M9 NLS at 2:1).
as §3

For `C[C@H](CCC(=O)NCC(=O)O)[C@H]1CC[C@H]2[C@@H]3[C@H](O)C[C@@H]4C[C@H](O)CC[C@]4(C)[C@H]3C[C@H](O)[C@]12C` [GCA, glycocholic acid], the “effect on GII.3 human norovirus infection and replication” value in the test with GII.3 human norovirus is “increase GII.3 human norovirus infection and replication”. Turning to `C[C@H](CCC(=O)NCC(=O)O)[C@H]1CC[C@H]2[C@@H]3[C@@H](O)C[C@@H]4C[C@H](O)CC[C@]4(C)[C@H]3CC[C@]12C` [GUDCA, glycoursodeoxycholic acid], the “immunogen enhancer activity (B3Z reporter system)” value with B3Z cells [1] (GUDCA:OVA molar ratios 2:1, 4:1, 8:1, 12:1 and 22:1) is “observed at all GUDCA:OVA molar ratios tested”. Moreover, the “increase in B3Z response (OD570) over the OVA alone” value with B3Z cells [1] (unconjugated GUDCA mixed with OVA, 22:1, data not shown) is not above 30%.

On to `C[C@H](CCC(=O)NCCS(=O)(=O)O)[C@H]1CC[C@H]2[C@@H]3[C@H](O)C[C@@H]4C[C@H](O)CC[C@]4(C)[C@H]3C[C@H](O)[C@]12C` [TCA, taurocholic acid], for which, in the test on GII.3 human norovirus, the “effect on GII.3 human norovirus infection and replication” value was “increase GII.3 human norovirus infection and replication”. For the compound “CA-GWG-SV40NLS: cholic acid conjugated to peptide CGWWGYGPKKKRKVGGWWG (SEQ ID NO: 3) (also: cholic acid conjugate, site not given here)”, the “antigen-presentation activity of cholic acid-NLS peptide conjugate (B3Z response OD570)” value (“antigen-presentation activity” for short) with B3Z cells [1] is “higher antigen-presentation activity than SV40NLS”; in the test with B3Z cells [2], “strikingly high antigen-presentation activity”.

As to “CA-HuR NLS: cholic acid conjugated to peptide CGRFSPMGVDHMSGLSGVNVPG (SEQ ID NO: 13) (also: cholic acid conjugate, site not given here)”, the “antigen-presentation activity” value is listed as “high antigen presentation activity” in the test on B3Z cells [1] and “strikingly high antigen-presentation activity” with B3Z cells [2].

Regarding “CA-NLS2-RG-RPS17 NLS: cholic acid conjugated to NLS2-RG Domain RPS17 peptide (SEQ ID NO: 11) (CNKRVCEEIAIIPSKKLRNKGSGRIQRGPVRGIS; cysteine pairing not given here; also: cholic acid conjugate, site not given here)”, in the test with B3Z cells [1], the “antigen-presentation activity” value was “high antigen presentation activity”. As for “CA-NLS3-RPS17 NLS: cholic acid conjugated to peptide SKKLRNKIAGYVTHLMKRI (SEQ ID NO: 8) (also: cholic acid conjugate, site not given here)”, in the test with B3Z cells [1], the “antigen-presentation activity” value is reported as “high antigen presentation activity”. Moreover, the “OVA internalization (OVA-AF647 fluorescence)” value (“OVA internalization” below) in test [3] is recorded as “enhance OVA internalization”. Also, the “OVA processing (OVA-DQ fluorescence)” value in test [4] is “enhance OVA processing”. For “CA-SV40NLS: cholic acid conjugated to the N-terminal cysteine amino group of 13-mer peptide CGYGPKKKRKVGG (SEQ ID NO: 1) (Cholyl-CGYGPKKKRKVGG)”, the “antigen cross-presentation (B3Z response) compared with OVA alone” value in the test on B3Z cells [1] is “increased antigen cross-presentation”. Turning to “CA-cMyc NLS: cholic acid conjugated to peptide CGYGPAAKRVKLDGG (SEQ ID NO: 12) (also: cholic acid conjugate, site not given here)”, in the test with B3Z cells [1], the “antigen-presentation activity” value is “high antigen presentation activity”. On to “CA-hnRNPA1 M9 NLS: cholic acid conjugated to peptide CSNFGPMKGGNFGGRSSGPY (SEQ ID NO: 4) (also: cholic acid conjugate, site not given here)”, for which, in test [3], the “OVA internalization” value is “enhance OVA internalization”. Further, the “OVA processing (OVA-DQ fluorescence)” value in test [4] was “enhance OVA processing”.

“NLS1-RPS17: cholic acid conjugated to peptide CMGRVRTKTVKKAAGG (SEQ ID NO: 15) (also: cholic acid conjugate, site not given here)”: in test [3], the “OVA internalization” value was “enhance OVA internalization”. In test [4], the “OVA processing (OVA-DQ fluorescence)” value is “enhance OVA processing”. Regarding “SV40NLS: unconjugated NLS peptide CGYGPKKKRKVGG (SEQ ID NO: 1) (SV40NLS) [reference compound]”, in the test on B3Z cells [1], the “antigen cross-presentation (B3Z response) compared with OVA alone” value was “no increase”.
